Structures can show the parent of a compound that is named as a salt. Where two headings read alike, the source gives them in different places.
System: caudate lesioned mouse
Assay: caudate lesioned mouse test (anti-parkinson activity)
Format: in vivo
Conditions: for ED50: caudate lesioned mouse; for Molar Potency Ratio Claimed/Ref. Ester: claimed N-propyl ester vs corresponding N-methyl reference ester; for responders at 132 µmol/kg: dose 0.132 m. mole/kg; for responders at 52 µmol/kg: dose 0.052 m. mole/kg
Experimental: An index of anti-parkinson activity was determined using the caudate lesioned mouse test described by Lotti, Life Sci., 10, 781-789 (1971). The mice having unilateral lesions of the caudate nucleus prepared according to the method of Lotti supra were observed immediately after the surgical procedure for strong postural asymmetries directed to the same side as the lesion. When this asymmetry was not observed, the mice were discarded. Operated mice were allowed at least 14 days to recover prior to drug testing. The lesioned mice were tested with apomorphine using 1.7 mg./kg. of base administered intraperitoneally in a 1% suspension in gum tragacanth. […] Only those mice which twisted or circled toward the lesioned side in all three test periods after the apomorphine injection were retained for further drug testing. The test drugs were all administered in 1% gum tragacanth suspension in a volume of 0.1 ml./10 g. of body weight. Doses were expressed in mg./kg. of free base.
Results of tests in the caudate lesioned mouse test described above which were obtained on the compounds of the invention are given in the table below identified, in each case, by the example numbers above where their preparations are described. Corresponding data for reference apomorphine diesters described in German patent application No. 2,154,162 are given in a side-by-side relationship for a number of the species. The reference compounds, designated Ref. 1, Ref. 1B, Ref. 1C, Ref. 1D, Ref. 1E, Ref. 1F, Ref. 2 and Ref. 2A correspond, respectively, to the compounds of the invention identified by Examples 1, 1B, 1C, 1D, 1E, 1F, 2 and 2A and differ from the latter only in having a methyl group on the apomorphine nitrogen from instead of an n-propyl group as present in the instant compounds.

[1] = Mus musculus, 0.5 h, read-out: No. Mice Affected/No. Mice Tested, 1/2 h
[2] = Mus musculus, 1 h, read-out: No. Mice Affected/No. Mice Tested, 1 h
[3] = Mus musculus, 2 h, read-out: No. Mice Affected/No. Mice Tested, 2 h
[4] = Mus musculus, 4 h, read-out: No. Mice Affected/No. Mice Tested, 4 h
[5] = Mus musculus, 6 h, read-out: No. Mice Affected/No. Mice Tested, 6 h
[6] = Mus musculus, 24 h, read-out: No. Mice Affected/No. Mice Tested, 24 h
[7] = Mus musculus, read-out: No. Mice Affected/No. Mice Tested, Total
[8] = Mus musculus, 0.5 h, dose 0.026 m. mole/kg, 1/2 h post-drug, read-out: No. Mice Affected/No. Mice Tested, 1/2 h (converted)
[9] = Mus musculus, 0.5 h, 1/2 h post-drug, read-out: No. Mice Affected/No. Mice Tested, 1/2 h (converted)
[10] = Mus musculus, dose 0.026 m. mole/kg, 1 h post-drug, read-out: No. Mice Affected/No. Mice Tested, 1 h (converted)
[11] = Mus musculus, dose 0.026 m. mole/kg, 4 h post-drug, read-out: No. Mice Affected/No. Mice Tested, 4 h (converted)
[12] = Mus musculus, dose 0.026 m. mole/kg, 6 h post-drug, read-out: No. Mice Affected/No. Mice Tested, 6 h (converted)
[13] = Mus musculus, dose 0.026 m. mole/kg, 24 h post-drug, read-out: No. Mice Affected/No. Mice Tested, 24 h
[14] = Mus musculus, dose 0.026 m. mole/kg, total, read-out: No. Mice Affected/No. Mice Tested, Total (converted)
[15] = Mus musculus, 1 h post-drug, read-out: No. Mice Affected/No. Mice Tested, 1 h (converted)
[16] = Mus musculus, 4 h post-drug, read-out: No. Mice Affected/No. Mice Tested, 4 h (converted)
[17] = Mus musculus, 6 h post-drug, read-out: No. Mice Affected/No. Mice Tested, 6 h (converted)
[18] = Mus musculus, total, read-out: No. Mice Affected/No. Mice Tested, Total (converted)
[19] = Mus musculus, 24 h post-drug, read-out: No. Mice Affected/No. Mice Tested, 24 h

With CCCN1CCc2cccc3c2C1Cc1ccc(OC(=O)CC)c(OC(=O)CC)c1-3 (stereo not drawn) [Ex. 1 (Base), N-propylnorapomorphine dipropionate] the responders at 5.2 µmol/kg [1] was 0%, the responders at 13 µmol/kg [1] was 75% and the responders at 26 µmol/kg [1] was 100%. The responders at 5.2 µmol/kg [2] was 0%, the responders at 13 µmol/kg [2] was 75% and the responders at 26 µmol/kg [2] was 100%. The responders at 5.2 µmol/kg [3] was 0%, the responders at 13 µmol/kg [3] was 75% and the responders at 26 µmol/kg [3] was 75%. It also gave a responders at 5.2 µmol/kg [4] of 0%, a responders at 13 µmol/kg [4] of 75% and a responders at 26 µmol/kg [4] of 75%. The responders at 5.2 µmol/kg [5] was 0%, the responders at 13 µmol/kg [5] was 50% and the responders at 26 µmol/kg [5] was 25%. It also gave a responders at 5.2 µmol/kg [6] of 0%, a responders at 13 µmol/kg [6] of 0% and a responders at 26 µmol/kg [6] of 0%. For the same molecule, the ED50 (Mus musculus) was 10 µmol/kg, the responders at 5.2 µmol/kg [7] was 0% and the responders at 13 µmol/kg [7] was 75%. The responders at 26 µmol/kg [7] was 100% and the “Molar Potency Ratio Claimed/Ref. Ester” value was 10.

Molecule CCCN1CCc2cccc3c2C1Cc1ccc(OC(=O)CC)c(OC(=O)CC)c1-3 (stereo not drawn) [Ex. 1 (HCl), N-propylnorapomorphine dipropionate] has an ED50 of 0.0094 m. mole/kg, a responders at 6.5 µmol/kg [1] of 25% and a responders at 130 µmol/kg [1] of 75%. It also gave a responders at 260 µmol/kg [1] of 100%, a responders at 6.5 µmol/kg [2] of 25% and a responders at 130 µmol/kg [2] of 50%. For the same molecule, the responders at 260 µmol/kg [2] was 100%, the responders at 6.5 µmol/kg [3] was 0% and the responders at 130 µmol/kg [3] was 0%. The responders at 260 µmol/kg [3] was 100%, the responders at 6.5 µmol/kg [4] was 0% and the responders at 130 µmol/kg [4] was 0%. For the same molecule, the responders at 260 µmol/kg [4] was 100%, the responders at 6.5 µmol/kg [5] was 0% and the responders at 130 µmol/kg [5] was 0%. For the same molecule, the responders at 260 µmol/kg [5] was 100%, the responders at 6.5 µmol/kg [7] was 25% and the responders at 130 µmol/kg [7] was 75%. For the same molecule, the responders at 260 µmol/kg [7] was 100% and the “Molar Potency Ratio Claimed/Ref. Ester” value was 10.

For CCCC(=O)Oc1ccc2c(c1OC(=O)CCC)-c1cccc3c1C(C2)N(CCC)CC3 (stereo not drawn) [Ex. 1A, N-Propylnorapomorphine dibutanoate], the responders at 26 µmol/kg [8] was 0%, the responders at 132 µmol/kg [9] was 50% and the responders at 26 µmol/kg [10] was 0%. The responders at 26 µmol/kg (Mus musculus, dose 0.026 m. mole/kg, 2 h post-drug, read-out: No. Mice Affected/No. Mice Tested, 2 h (converted)) was 0%, the responders at 26 µmol/kg [11] was 0% and the responders at 26 µmol/kg [12] was 0%. For the same molecule, the responders at 26 µmol/kg [13] was 0%, the responders at 26 µmol/kg [14] was 0% and the responders at 132 µmol/kg [15] was 100%. For the same molecule, the responders at 132 µmol/kg (Mus musculus, 2 h post-drug, read-out: No. Mice Affected/No. Mice Tested, 2 h (converted)) was 100%, the responders at 132 µmol/kg [16] was 100% and the responders at 132 µmol/kg [17] was 100%. The responders at 132 µmol/kg (Mus musculus, 24 h post-drug, read-out: No. Mice Affected/No. Mice Tested, 24 h (converted)) was 100% and the responders at 132 µmol/kg [18] was 100%.

CCCN1CCc2cccc3c2C1Cc1ccc(OC(=O)C(C)C)c(OC(=O)C(C)C)c1-3 (stereo not drawn) [Ex. 1B, N-Propylnorapomorphine diisobutyrate] showed a responders at 26 µmol/kg [8] of 0%, a responders at 52 µmol/kg [9] of 33.3% and a responders at 26 µmol/kg [10] of 25%. It also gave a responders at 26 µmol/kg [11] of 50%, a responders at 26 µmol/kg [12] of 50% and a responders at 26 µmol/kg [13] of 0%. It also gave a responders at 26 µmol/kg [14] of 50%, a responders at 52 µmol/kg [15] of 33.3% and a responders at 52 µmol/kg [16] of 33.3%. It also gave a responders at 52 µmol/kg [17] of 0%, a responders at 52 µmol/kg [19] of 0% and a responders at 52 µmol/kg [18] of 33.3%. The “Molar Potency Ratio Claimed/Ref. Ester” value was no less than 8.

CCCN1CCc2cccc3c2C1Cc1ccc(OC(=O)C(C)(C)C)c(OC(=O)C(C)(C)C)c1-3 (stereo not drawn) [Ex. 1C, N-Propylnorapomorphine dipivaloate] showed a responders at 26 µmol/kg [8] of 0%, a responders at 26 µmol/kg [10] of 0% and a responders at 26 µmol/kg [11] of 100%. The responders at 26 µmol/kg [12] was 100%, the responders at 26 µmol/kg [13] was 0% and the responders at 26 µmol/kg [14] was 100%. For the same molecule, the “Molar Potency Ratio Claimed/Ref. Ester” value was no less than 16.

Work on CCCN1CCc2cccc3c2C1Cc1ccc(OC(=O)c2ccccc2)c(OC(=O)c2ccccc2)c1-3 (stereo not drawn) [Ex. 1E, N-Propylnorapomorphine dibenzoate hydrochloride] yielded a responders at 52 µmol/kg [9] of 0%, a responders at 52 µmol/kg [15] of 0% and a responders at 52 µmol/kg [16] of 66.7%. For the same molecule, the responders at 52 µmol/kg [17] was 33.3%, the responders at 52 µmol/kg [19] was 0% and the responders at 52 µmol/kg [18] was 66.7%. The “Molar Potency Ratio Claimed/Ref. Ester” value was no less than 8.

From patent publication US4126616A, “N-propylnorapomorphine diesters” (Hinshaw; William B., priority 1976, dated 1978)
